Series [1] can be described thus: Inhibition of HCV NS5B polymerase. The arrangement: species or system Hepacivirus hominis.
Series [2] concerns Liver. Briefly: Metabolic stability in rat liver assessed as (2S)-2-((((2R,3R,4R,5R)-5-(2-amino-6-methoxy-9H-purin-9-yl)-4-fluoro-3-hydroxy-4-methyltetrahydrofuran-2-yl)methoxy)(hydroxy)phosphorylamino)propanoic acid level at 60 uCi, po after 1 hr. Format: ADME, organism-based. To be noted: in vivo.
Series [3] deals with Liver. Briefly: Metabolic stability in rat liver assessed as ((2R,3R,4R,5R)-5-(2-amino-6-oxo-1H-purin-9(6H)-yl)-4-fluoro-3-hydroxy-4-methyltetrahydrofuran-2-yl)methyl tetrahydrogen triphosphate level at 60 uCi, po after 1 hr. Format: ADME, organism-based. To be noted: in vivo.
Series [4] concerns Liver. Kind of series: Metabolic stability in rat liver assessed as ((2R,3R,4R,5R)-5-(2-amino-6-oxo-1H-purin-9(6H)-yl)-4-fluoro-3-hydroxy-4-methyltetrahydrofuran-2-yl)methyl trihydrogen diphosphate level at 60 uCi, po after 1 hr. Format: ADME, organism-based. As to conditions: in vivo.
Series [5] has as its system Liver. Briefly: Metabolic stability in rat liver assessed as ((2R,3R,4R,5R)-5-(2-amino-6-oxo-1H-purin-9(6H)-yl)-4-fluoro-3-hydroxy-4-methyltetrahydrofuran-2-yl)methyl dihydrogen phosphate level at 60 uCi, po after 1 hr. To be noted: in vivo. Format: ADME, organism-based.
The test system of series [6] is Liver. Briefly: Metabolic stability in rat liver assessed as beta-D-2'-Deoxy-2'-R-fluoro-2'-beta-C-methylguanosine level at 60 uCi, po after 6 hrs. It is filed as ADME, organism-based. To be noted: in vivo.
The subject of series [7] is Plasma. Briefly: Metabolic stability in rat plasma assessed as beta-D-2'-Deoxy-2'-R-fluoro-2'-beta-C-methylguanosine level at 60 uCi, po after 1 hr. It is filed as ADME, organism-based. As to conditions: in vivo.
Series [8] relates to Liver. Briefly: Metabolic stability in rat liver assessed as (2S)-2-((((2R,3R,4R,5R)-5-(2-amino-6-methoxy-9H-purin-9-yl)-4-fluoro-3-hydroxy-4-methyltetrahydrofuran-2-yl)methoxy)(hydroxy)phosphorylamino)propanoic acid level at 60 uCi, po after 6 hrs. As to conditions: in vivo. It is filed as ADME, organism-based.
In series [9] the test system is Liver. Briefly: Metabolic stability in rat liver assessed as beta-D-2'-Deoxy-2'-R-fluoro-2'-beta-C-methylguanosine level at 60 uCi, po after 1 hr. It is filed as ADME, organism-based. To be noted: in vivo.
Series [10] deals with Plasma. Briefly: Metabolic stability in rat plasma assessed as (2S)-isopropyl 2-((((2R,3R,4R,5R)-5-(2-amino-6-methoxy-9H-purin-9-yl)-4-fluoro-3-hydroxy-4-methyltetrahydrofuran-2-yl)methoxy)(phenoxy)phosphorylamino)propanoate level at 60 uCi, po after 1 hr. Format: ADME, organism-based. To be noted: in vivo.
The test system of series [11] is Plasma. Kind of series: Metabolic stability in rat plasma assessed as (2S)-2-((((2R,3R,4R,5R)-5-(2-amino-6-methoxy-9H-purin-9-yl)-4-fluoro-3-hydroxy-4-methyltetrahydrofuran-2-yl)methoxy)(hydroxy)phosphorylamino)propanoic acid level at 60 uCi, po after 6 hrs. It is filed as ADME, organism-based. To be noted: in vivo.
Series [12] has as its system Plasma. Briefly: Metabolic stability in rat plasma assessed as (2S)-2-((((2R,3R,4R,5R)-5-(2-amino-6-methoxy-9H-purin-9-yl)-4-fluoro-3-hydroxy-4-methyltetrahydrofuran-2-yl)methoxy)(hydroxy)phosphorylamino)propanoic acid level at 60 uCi, po after 1 hr. It is filed as ADME, organism-based. To be noted: in vivo.
The subject of series [13] is Plasma. Kind of series: Metabolic stability in rat plasma assessed as (2S)-isopropyl 2-((((2R,3R,4R,5R)-5-(2-amino-6-methoxy-9H-purin-9-yl)-4-fluoro-3-hydroxy-4-methyltetrahydrofuran-2-yl)methoxy)(phenoxy)phosphorylamino)propanoate level at 60 uCi, po after 6 hrs. Format: ADME, organism-based. As to conditions: in vivo.
The test system of series [14] is Liver. Briefly: Metabolic stability in rat liver assessed as ((2R,3R,4R,5R)-5-(2-amino-6-oxo-1H-purin-9(6H)-yl)-4-fluoro-3-hydroxy-4-methyltetrahydrofuran-2-yl)methyl tetrahydrogen triphosphate level at 60 uCi, po after 6 hrs. Format: ADME, organism-based. As to conditions: in vivo.
Series [15] has as its system Liver. Kind of series: Metabolic stability in rat liver assessed as ((2R,3R,4R,5R)-5-(2-amino-6-oxo-1H-purin-9(6H)-yl)-4-fluoro-3-hydroxy-4-methyltetrahydrofuran-2-yl)methyl trihydrogen diphosphate level at 60 uCi, po after 6 hrs. Format: ADME, organism-based. To be noted: in vivo.
Series [16] deals with Liver. Kind of series: Metabolic stability in rat liver assessed as ((2R,3R,4R,5R)-5-(2-amino-6-oxo-1H-purin-9(6H)-yl)-4-fluoro-3-hydroxy-4-methyltetrahydrofuran-2-yl)methyl dihydrogen phosphate level at 60 uCi, po after 6 hrs. Format: ADME, organism-based. As to conditions: in vivo.
Series [17] has as its system Plasma. Kind of series: Metabolic stability in rat plasma assessed as beta-D-2'-Deoxy-2'-R-fluoro-2'-beta-C-methylguanosine level at 60 uCi, po after 6 hrs. Format: ADME, organism-based. As to conditions: in vivo.
The test system of series [18] is Plasma. Briefly: Metabolic stability in rat plasma assessed as PSI-353661 level at 60 uCi, po after 6 hrs. It is filed as ADME, organism-based. To be noted: in vivo.
Series [19] has as its system Plasma. Briefly: Metabolic stability in rat plasma assessed as PSI-353661 level at 60 uCi, po after 1 hr. It is filed as ADME, organism-based. To be noted: in vivo.
The test system of the next series is Hepatitis C virus. Briefly: Antiviral activity against HCV by cell-based replicon assay. It is filed as functional, Hepacivirus hominis.

The term IC50 denotes the concentration that gives 50% inhibition. For orientation: EC90 means the concentration needed for an effect of 90%. A low value points to greater potency.

SMILES strings stand for the structures.

As to `C[C@@]1(F)[C@H](O)[C@@H](COP(=O)(O)OP(=O)(O)OP(=O)(O)O)O[C@H]1n1cnc2c(=O)[nH]c(N)nc21` [PSI-352666], in series [1], the IC50 came out at 5.94 µM.
Turning to `[3H]c1nc2c(OC)nc(N)nc2n1[C@@H]1O[C@H](COP(=O)(O)N[C@@H](C)C(=O)OC(C)C)[C@@H](O)[C@@]1(C)F`, the Stability in the series on Liver [2] is 1648 cpm; with Liver [3], 384 cpm; in the series with Liver [4], 988 cpm; in the series with Liver [5], 1828 cpm; with Liver [6], 11512 cpm; in the series on Plasma [7] it was 1376 cpm. Further, the Stability with Liver [8] is listed as 572 cpm; in the series on Liver [9], 4224 cpm; in the series with Plasma [10], 1160 cpm; in the series on Plasma [11], 288 cpm; with Plasma [12] it was 920 cpm; in the series on Plasma [13] it was 272 cpm. The Stability with Liver [14] worked out at 460 cpm; with Liver [15], 1620 cpm; with Liver [16], 1920 cpm; in the series on Plasma [17] it was 3848 cpm; with Plasma [18] it was 368 cpm; in the series on Plasma [19], 1112 cpm.
`C[C@@]1(F)[C@H](O)[C@@H](CO)O[C@H]1n1cnc2c(O)nc(N)nc21`: the 90% effect level with Hepatitis C virus (EC90) was put at 69.2 µM.

The record behind these values is ChEMBL document CHEMBL1671830, “Discovery of PSI-353661, a Novel Purine Nucleotide Prodrug for the Treatment of HCV Infection” (ACS Med Chem Lett, 2011).
